According to patent US20150203474A1, “SOLID FORMS COMPRISING INHIBITORS OF HCV NS5A, COMPOSITIONS THEREOF, AND USES THEREWITH” (PRESIDIO PHARMACEUTICALS ,INC., priority 2012, published 2015):
Where two headings read alike, the source gives them in different places.

Columns and labels:
[1] = PK study of Form A of Compound I in rats; format: in vivo; details: male, Sprague-Dawley, rat, plasma, po, 75 mg/kg, single PO dose of 75 mg/kg, male SD rats
Protocol: The pharmacokinetics (PK) properties of Form A of Compound I and Form I of Compound II were determined in a series of comprehensive experiments in preclinical species including Sprague-Dawley rats, beagle dogs, cynomolgus monkeys. In those studies, the Form A crystalline salt of Compound I (and Form I crystalline salt of Compound II) was formulated in saline, 0.5% MC in saline or other commonly used suitable formulation vehicles to give a clear solution or as a suspension or a paste depending on the concentration intended to reach and the choice of vehicles. Dosing was by oral gavage. Blood samples were drawn and placed into individual tube containing K2EDTA. Blood samples were put on ice and centrifuged (2000 g for 5 minutes at 4° C.) to obtain plasma within 15 minutes after collection. Plasma samples were stored at approximately −80° C. freezer until analysis. For most of these analyses, Compound I (and Compound II) and the internal standard (IS) were extracted from rat, monkey or dog plasma by protein precipitation, and the extract was evaporated, reconstituted and analyzed using HPLC with tandem mass spectrometric detection (HPLC-MS/MS), see examples for further details. Calibration was accomplished by weighted linear regression of the ratio of the peak area of analyte to that of the added internal standard (IS). For the validated assay in rat and monkey EDTA plasma, the Lower Limit of Quantitation (LLOQ) for both compound 1 and 2 was 5.00 ng/mL, and the assay was linear from 5.00-1,000 ng/mL. PK parameters were calculated by non-compartmental analysis using WinNonlin (versions 4.1 through 6.1). 1) Weighed 922.80 mg of Form A of Compound I (equivalent to 824.603 mg of free base) into a clean tube. 2) Added 54.974 mL of 0.5% methylcellulose in saline into the tube containing the Form A of Compound I, vortexed for 3-5 min and sonicated for 10-15 min. The dosing solution was a light yellow and clear solution. Sprague Dawley rats, ˜7-9 weeks old and weighing ˜210-270 g, were given the above dosing solution at 5 mL/kg. […] Sample Preparation for Analysis: An aliquot of 30 μL of plasma sample was mixed with 30 μL of the IS (200 ng/mL), then mixed with 150 μL ACN for protein precipitation. The mixture was vortexed for 2 min and centrifuged at 12000 rpm for 5 min. An aliquot of 1 μL of supernatant was injected onto HPLC-MS/MS, if no further dilution was needed. To prepare a 10-fold diluted plasma samples, an aliquot of 10 μL plasma sample was mixed with 90 μL blank plasma to obtain the diluted plasma samples. The extraction procedure for diluted samples was as the same as that used for the non-diluted samples. • Compound Concentration Quantitation: • Instrument HPLC-MS/MS-12 (API4000), on positive ionization mode, ESI+ • HPLC Conditions Mobile Phase A: H2O—0.025% formic acid (FA)—1 mM NH4OAc • Mobile Phase B: MeOH—0.025% FA—1 mM NH4OAc Pharmacokinetic analysis was done using the WinNonlin software (Version 5.3, Pharsight Corporation, California, USA). Any concentration data under LLOQ (LLOQ=1.00 ng/mL in rat plasma and 3.00 ng/mL in rat liver homogenate) were replaced with “BQL”.

[2] = Moisture sorption/desorption (DVS) of Compound I Form A; format: physicochemical; details: 25° C.
Protocol: Dynamic vapor sorption/desorption (DVS) data were collected on a VTI SGA-100 Vapor Sorption Analyzer. NaCl and PVP were used as calibration standards. Samples were not dried prior to analysis. Adsorption and desorption data were collected over a range from 5 to 95% RH at 10% RH increments under a nitrogen purge. The equilibrium criterion used for analysis was less than 0.0100% weight change in 5 minutes with a maximum equilibration time of 3 hours. Data were not corrected for the initial moisture content of the samples. Moisture sorption/desorption data were collected for the sample on a VTI […] Vapor Sorption Analyzer. NaCl and PVP were used as calibration standards. Samples were vacuum dried prior to analysis. Sorption and desorption data were collected over a range from 5 to 95% RH at 10% RH increments under a nitrogen purge. The equilibrium criterion used for analysis was less than 0.0100% weight change in 5 minutes with a maximum equilibration time of 3 hours. Data were not corrected for the initial moisture content of the samples. FIG. 15 illustrates the graphed Weight % vs. Relative Humidity.

[3] = Mean (N = 3), read-out: mean plasma concentration
[4] = Rat #1, read-out: plasma concentration
[5] = Rat #2, read-out: plasma concentration
[6] = Rat #3, read-out: plasma concentration
[7] = with respect to the initial sample weight

## COC(=O)N[C@H](C(=O)N1CCC[C@H]1c1ncc(-c2ccc3cc(-c4ccc5nc([C@@H]6CCCN6C(=O)[C@@H](NC(=O)OC)C(C)C)[nH]c5c4)ccc3c2)[nH]1)C(C)C [Form A of Compound I]
[1]; [3]
  concentration at 1 h: 5970 ng/mL
  concentration at 2 h: 7430 ng/mL
  concentration at 3 h: 8340 ng/mL
  concentration at 4 h: 3930 ng/mL
  concentration at 6 h: 2850 ng/mL
  concentration at 8 h: 531 ng/mL
  concentration at 12 h: 176 ng/mL
  concentration at 24 h: 8.07 ng/mL
[1]; [4]
  concentration at 1 h: 6210 ng/mL
  concentration at 2 h: 8030 ng/mL
  concentration at 3 h: 5670 ng/mL
  concentration at 4 h: 3680 ng/mL
  concentration at 6 h: 2780 ng/mL
  concentration at 8 h: 498 ng/mL
  concentration at 12 h: 188 ng/mL
  concentration at 24 h: 8.12 ng/mL
[1]; [5]
  concentration at 1 h: 5480 ng/mL
  concentration at 2 h: 7890 ng/mL
  concentration at 3 h: 8060 ng/mL
  concentration at 4 h: 5170 ng/mL
  concentration at 6 h: 3370 ng/mL
  concentration at 8 h: 704 ng/mL
  concentration at 12 h: 277 ng/mL
  concentration at 24 h: 7.95 ng/mL
[1]; [6]
  concentration at 1 h: 6230 ng/mL
  concentration at 2 h: 6380 ng/mL
  concentration at 3 h: 11300 ng/mL
  concentration at 4 h: 2930 ng/mL
  concentration at 6 h: 2400 ng/mL
  concentration at 8 h: 390 ng/mL
  concentration at 12 h: 63.6 ng/mL
  concentration at 24 h: 8.15 ng/mL
[2]; desorption, Samp RH 5.17 %
  Weight % chg: 0.673%
[2]; desorption, Samp RH 14.73 %
  Weight % chg: 2.010%
[2]; desorption, Samp RH 25.12 %
  Weight % chg: 3.025%
[2]; desorption, Samp RH 35.13 %
  Weight % chg: 3.870%
[2]; desorption, Samp RH 44.99 %
  Weight % chg: 4.590%
[2]; desorption, Samp RH 55.17 %
  Weight % chg: 5.352%
[2]; desorption, Samp RH 65.08 %
  Weight % chg: 5.993%
[2]; desorption, Samp RH 75.27 %
  Weight % chg: 6.741%
[2]; desorption, Samp RH 85.24 %
  Weight % chg: 7.855%
[2]; sorption, Samp RH 5.09 %
  Weight % chg: −0.187%
[2]; sorption, Samp RH 14.73 %
  Weight % chg: 0.065%
[2]; sorption, Samp RH 24.93 %
  Weight % chg: 0.303%
[2]; sorption, Samp RH 34.87 %
  Weight % chg: 0.521%
[2]; sorption, Samp RH 44.91 %
  Weight % chg: 0.780%
[2]; sorption, Samp RH 54.80 %
  Weight % chg: 1.082%
[2]; sorption, Samp RH 64.95 %
  Weight % chg: 1.458%
[2]; sorption, Samp RH 74.71 %
  Weight % chg: 1.868%
[2]; sorption, Samp RH 84.57 %
  Weight % chg: 2.502%
[2]; sorption, Samp RH 94.86 %
  Weight % chg: 10.824%
[2]; [7]
  % wt change upon equilibration at 5% RH: −0.187 % wt
  % wt gain from 5%-85% RH: 2.689 % wt
  % wt gain from 85%-95% RH: 8.322 % wt
  % wt lost from 95%-5% RH: 10.151 % wt
